Laboratory results from US8580738B2, “Methods for treatment of reperfusion injury and other cardiac conditions” (The Board of Regents of the University of Texas System, priority 2007, dated 2013).
Entries after “also recorded” stand apart in the source; their conditions may differ. Like-named read-outs stand apart in the source and are kept apart here. Where no end group is shown, it is not given here.

Columns and labels:
[1] = system: calcitonin-gene related peptide mRNA in intrinsic cardiac adrenergic cells; assay: CGRP mRNA regulation in isolated rat intrinsic cardiac adrenergic (ICA) cells, RT-PCR / quantitative real-time PCR; type: cell-based; conditions: for increase in calcitonin-gene related peptide mRNA (quantitative real-time PCR): isolated rat ICA cells, 60-min treatment, DPDPE 100 nM or epinephrine 1 μmol; for increase in calcitonin-gene related peptide mRNA (quantitative real-time PCR) / effect on calcitonin-gene related peptide mRNA levels: FIG. 3; for effect on calcitonin-gene related peptide mRNA levels: rat ICA cells
Experimental: 0-h represents immediately after 60-min drug treatment. 6-h and 24-h represent 6 and 24 hrs after 60 min drug treatment, respectively. Epi: epinephrine. UT: DPDPE-untreated.
RNA load is verified by the amount of GAPDH. Bar graphs are data normalized to their respective GAPDH mRNA.

[2] = system: rat myocardial ischemia-reperfusion model; assay: Rat myocardial ischemia-reperfusion model (30-min LAD occlusion, 4-hr reperfusion), infarct size; type: in vivo; conditions: for infarct size: 30-min ischemia, 4-hr reperfusion, drug i.v. before ischemia, saline control 25±3%
Experimental: Rat MI model is created by 30-min LAD ligation followed by 4-h reperfusion.
(T+C)H: with high dose of terbutaline 1 mg/kg.
Experimental Myocardial Ischemia-Reperfusion Model. The rat myocardial ischemia-reperfusion model will be used (Birnbaum et al., 2005; Huang et al., 2007). This model consists of 30 min coronary artery occlusion followed by 4-hr reperfusion.
Saline (0.5 ml) will be infused to rats serving as control.
Each antagonist or their combination will be infused 20-min prior to DPDPE infusion. Arterial blood pressure and heart rate will be monitored continuously throughout the experiments.

[3] = system: left ventricular systolic function; assay: Left ventricular function by echocardiography after intravenous DPDPE; type: in vivo, rat
Text: The measurements were obtained from left ventricular short-axis view using echocardiography.
Intravenous infusion of δ-opioid agonist DPDPE to rats causes sustained increase in left ventricular systolic function as reflected by increased left ventricular fractional shortening and ejection fraction (FIG. 10). The fractional shortening and ejection fraction are two clinical parameters used for evaluating left ventricular function assayed by echocardiograph. This positive inotropic effect elicited by DPDPE sustains for more than 40 minutes following drug injection. Augmenting cardiac contractile function by δ-opioid receptor agonist has not been reported. δ-opioid agonists can augment heart performance and can be beneficial for clinical treatment of congestive heart failure.

[4] = cited from earlier work
[5] = DPDPE 100 μg/kg i.v., rats n=3, LV short-axis echocardiography, FIG. 10

In the case of Cc1ccc(OCC(O)C(C)NC(C)C)c2c1CCC2 (stereo not drawn) [ICI-118551], the “effect on epinephrine-induced CGRP gene upregulation” value ([1]; ICA cells, epinephrine in the presence of ICI-118551, FIG. 5) is reported as “epinephrine failed to increase; also recorded: attenuated” and the “effect on epinephrine-induced CGRP mRNA regulation” value ([1]; ICI at 50 μmol/L, ICA cells, FIG. 5) is reported as “completely eliminated”.

With (D-Pen^2, D-Pen^5)-enkephalin [DPDPE] the infarct size ([2]; FIG. 6) was 11±2%, the “reduction of infarct size compared to control group” value ([2]; δ-opioid agonist i.v. before ischemia, FIG. 6) was 57% and the “increase in ejection fraction” value [3, 5] was 23%. For the same compound, the “increase in fractional shortening” value [3, 5] was 54%, the “duration of positive inotropic effect following drug injection” value ([3]; i.v. DPDPE, rats) was “more than 40 minutes” and the “increase in calcitonin-gene related peptide mRNA (quantitative real-time PCR)” value [1] was 2 fold. For the same compound, the “effect on calcitonin-gene related peptide mRNA levels” value [1] was “modestly increases”.

For CC(C)(C)NCC(O)c1cc(O)cc(O)c1 (stereo not drawn) [terbutaline], the “effect on infarct size, drug delivered before LAD ligation / acute MI” value ([2]; i.v. infusion before LAD ligation, terbutaline 100 μg/kg, CGRP 30 ng/kg or combination, FIG. 9) was “no significant infarct-size-reduction”.

In the case of CNC[C@H](O)c1ccc(O)c(O)c1 [epinephrine], the “increase in calcitonin-gene related peptide mRNA compared to untreated (UT) group” value ([1]; ICA cells treated with epinephrine for 1 hr, FIG. 5) is reported as 6 fold, the “duration of CGRP gene regulatory effect” value ([1]; following a brief 60-min epinephrine treatment) is reported as 24 h and the “increase in calcitonin-gene related peptide mRNA (quantitative real-time PCR)” value [1] is reported as 14 fold. The “effect on calcitonin-gene related peptide mRNA levels” value [1] was “increases”.

With “CGRP8-37: calcitonin-gene related peptide receptor antagonist (VTHRLAGLLSRSGGVVKNNFVPTNVGSKAF; ends and bridges not checked; UniProt P06881 90-119, looked up, fragment)” the infarct size ([2]; FIG. 6) was 35±8% and the “increase in infarct size compared to saline control” value ([2]; CGRP8-37 i.v. 30 min before onset of myocardial ischemia, FIG. 6) was 38%.

In the case of COc1cccc2c1C(=O)c1c(O)c3c(c(O)c1C2=O)C[C@@](O)(C(=O)CO)C[C@@H]3O[C@H]1C[C@H](N)[C@H](O)[C@H](C)O1 [doxorubicin], the “incidence of doxorubicin-induced cardiomyopathy” value ([4]; dose of 501-550 mg/m^2 body surface area) is listed as over 5% and the “incidence of doxorubicin-induced cardiomyopathy” value ([4]; dose over 550 mg/m^2) is listed as 30%.
